Structures can show the parent of a compound that is named as a salt.

As a reminder, the %inhibition is how much of the control response was suppressed. The term inhibition denotes the percentage by which the read-out fell short of the control.

The target in the first assay is SARS-CoV-2 Mac1 (Severe acute respiratory syndrome coronavirus 2, UniProt P0DTD1). Briefly: biochemical. As to conditions: 100 µM; inhibitor.
Turning to `Clc1ccc(CCC(Cn2ccnc2)Sc2c(Cl)cccc2Cl)cc1` (stereo not shown) [Butoconazole nitrate], the “%inhibition” value was 4.358%. The same measure, in the same setting: the figure for `Clc1ccc(CCC(Cn2ccnc2)Sc2c(Cl)cccc2Cl)cc1` (stereo not shown) [Butoconazole] is 13.63%. `COc1cc2nccc(Oc3ccc(NC(=O)C4(C(=O)Nc5ccc(F)cc5)CC4)cc3)c2cc1OC` [Cabozantinib (XL184, BMS-907351)]: the “%inhibition” value is listed as 25.14%.

With `COc1cc2nccc(Oc3ccc(NC(=O)C4(C(=O)Nc5ccc(F)cc5)CC4)cc3)c2cc1OC` [Cabozantinib malate (XL184)], the “%inhibition” value amounted to 0%. Still for that read-out and setting: the figure for `COc1cc(CNC(=O)CCCC/C=C/C(C)C)ccc1O` [Capsaicin(Vanilloid)] is 5.806%. Still for that read-out and setting: the figure for `CC(=O)Oc1ccccc1C(=O)O` [Carbasalate Calcium] is 5.528%; for `CCCCCCNC(=O)n1cc(F)c(=O)[nH]c1=O` [Carmofur] it is 16.37%; for `COc1ccccc1OCCNCC(O)COc1cccc2[nH]c3ccccc3c12` (stereo not shown) [Carvedilol Phosphate] it is 0%. On the same count and under the same terms, the figure for `COc1ccccc1OCCNCC(O)COc1cccc2[nH]c3ccccc3c12` (stereo not shown) [Carvedilol] is 23.79%.

Still in this assay, the particulars now being: read-out: %inhibition.
With `CC(C)C[C@H](NC(=O)[C@H](Cc1ccccc1)NC(=O)c1cnccn1)B(O)O` [Bortezomib (PS-341)], the inhibition at 100 µM worked out at 54.2%.

Consider `COc1ccccc1Oc1c(NS(=O)(=O)c2ccc(C(C)(C)C)cc2)nc(-c2ncccn2)nc1OCCO` [Bosentan Hydrate], for which the inhibition at 100 µM is 0.962%.

`COc1cc(Nc2c(C#N)cnc3cc(OCCCN4CCN(C)CC4)c(OC)cc23)c(Cl)cc1Cl` [Bosutinib (SKI-606)]: the inhibition at 100 µM was determined as 55.6%. Same read-out and setting: the figure for `O=c1ccc2ccc(OCCCCN3CCN(c4cccc5sccc45)CC3)cc2[nH]1` [Brexpiprazole] is 0%. Still for that read-out and setting: then `Brc1c(NC2=NCCN2)ccc2nccnc12` [Brimonidine Tartrate], with 19.3%; and `CCN[C@H]1CN(CCCOC)S(=O)(=O)c2sc(S(N)(=O)=O)cc21` [Brinzolamide], with 0%; and `CCC[C@@H]1CC(=O)N([C@@H](CC)C(N)=O)C1` [Brivaracetam], with 24.6%. Same read-out and setting: then `O=c1[nH]c(=O)n([C@H]2C[C@H](O)[C@@H](CO)O2)cc1/C=C/Br` [Brivudine], with 17.8%; and `Nc1c(CC(=O)O)cccc1C(=O)c1ccc(Br)cc1` [Bromfenac Sodium], with 8.6%. Turning to `CN(Cc1cc(Br)cc(Br)c1N)C1CCCCC1` [Bromhexine HCl], the inhibition at 100 µM was 0%. Still for that read-out and setting: then `CC(C)C(Br)C(=O)NC(N)=O` (stereo not shown) [Bromisoval], with 0%; and `CN(C)CCC(c1ccc(Br)cc1)c1ccccn1` (stereo not shown) [Brompheniramine hydrogen maleate], with 9.47%; and `O=[N+]([O-])C(Br)(CO)CO` [Bronopol], with 0%.

For the molecule `Oc1c(Br)cc(Br)c2cccnc12` [Broxyquinoline], the inhibition at 100 µM came to 0%. Regarding `COc1cc2c(cc1OC)[C@@]13CCN4CC5=CCO[C@H]6CC(=O)N2[C@H]1[C@H]6[C@H]5C[C@H]43` [Brucine sulfate salt hydrate], the inhibition at 100 µM was found to be 0%.

Regarding `CCOc1ccc(NC(=O)CC(C)O)cc1` (stereo not shown) [Bucetin], the inhibition at 100 µM was found to be 2.67%.

Regarding `CCCC1O[C@@H]2C[C@H]3[C@@H]4CCC5=CC(=O)C=C[C@]5(C)[C@H]4[C@@H](O)C[C@]3(C)[C@]2(C(=O)CO)O1` (stereo partly shown) [Budesonide], the inhibition at 100 µM was 12.3%. Same read-out and setting: then `CCCCOc1ccc(CC(=O)NO)cc1` [Bufexamac], with 14.1%; and `COc1cc(OC)c(C(=O)CCCN2CCCC2)c(OC)c1` [Buflomedil HCl], with 0%; and `CCCCNc1cc(C(=O)O)cc(S(N)(=O)=O)c1Oc1ccccc1` [Bumetanide], with 25.7%. As for `CCCCN1CCCCC1C(=O)Nc1c(C)cccc1C` (stereo not shown) [Bupivacaine HCl], the inhibition at 100 µM was 0%. Still for that read-out and setting: then `O=C1CC2(CCCC2)CC(=O)N1CCCCN1CCN(c2ncccn2)CC1` [Buspirone HCl], with 7.05%. Still for that read-out and setting: then `CS(=O)(=O)OCCCCOS(C)(=O)=O` [Busulfan], with 0%; and `CCCCOC(=O)c1ccc(N)cc1` [Butamben], with 2.1%. On the same count and under the same terms, the figure for `CN(Cc1ccc(C(C)(C)C)cc1)Cc1cccc2ccccc12` [Butenafine HCl] is 0%.

With `CCCCOC(=O)c1ccc(O)cc1` [Butylparaben], the inhibition at 100 µM turned out to be 0%. Same read-out and setting: the figure for `CCCC[N+]1(C)[C@@H]2C[C@@H](OC(=O)[C@H](CO)c3ccccc3)C[C@H]1[C@@H]1O[C@@H]12` (stereo partly shown) [Butylscopolamine Bromide] is 0%; for `NC(=O)c1cc(N2CC2)c([N+](=O)[O-])cc1[N+](=O)[O-]` [CB1954] it is 5.18%; for `C#Cc1cccc(Nc2ncnc3cc(OC)c(OCCCCCCC(=O)NO)cc23)c1` [CUDC-101] it is 6.86%. `CO[C@H]1C(=O)[C@]2(C)[C@@H](OC)C[C@H]3OC[C@@]3(OC(C)=O)[C@H]2[C@H](OC(=O)c2ccccc2)[C@]2(O)C[C@H](OC(=O)[C@H](O)[C@@H](NC(=O)OC(C)(C)C)c3ccccc3)C(C)=C1C2(C)C` [Cabazitaxel]: the inhibition at 100 µM amounted to 25.1%. On the same count and under the same terms, then `C=C1CC[C@H](O)C/C1=C/C=C1\CCC[C@]2(C)[C@@H]([C@H](C)CCCC(C)(C)O)CC[C@@H]12` [Calcifediol], with 0%; and `C=C1/C(=C\C=C2/CCC[C@]3(C)[C@@H]([C@H](C)/C=C/[C@@H](O)C4CC4)CC[C@@H]23)C[C@@H](O)C[C@@H]1O` [Calcipotriene], with 0%; and `CC(C)(CO)[C@@H](O)C(=O)NCCC(=O)O` [Calcium D-Panthotenate], with 14.2%. On the same count and under the same terms, the figure for `O=C(O)C(O)[C@H](O)[C@@H](O)[C@H](O)[C@H](O)CO` (stereo partly shown) [Calcium Gluceptate] is 0%. Regarding `Nc1nc(=O)c2c([nH]1)NCC(CNc1ccc(C(=O)N[C@@H](CCC(=O)O)C(=O)O)cc1)N2C=O` (stereo partly shown) [Calcium folinate], the inhibition at 100 µM is 0%. As for `O=C(O)[C@H](O)[C@@H](O)[C@H](O)[C@H](O)CO` [Calcium gluconate], the inhibition at 100 µM amounted to 0%. On the same count and under the same terms, the figure for `CN(C)C(=O)COC(=O)Cc1ccc(OC(=O)c2ccc(NC(=N)N)cc2)cc1` [Camostat Mesilate] is 42.9%; for `Cc1ccc([C@@H]2O[C@H](CO)[C@@H](O)[C@H](O)[C@H]2O)cc1Cc1ccc(-c2ccc(F)cc2)s1` [Canagliflozin] it is 0%; for `CCOc1nc2cccc(C(=O)OC(C)OC(=O)OC3CCCCC3)c2n1Cc1ccc(-c2ccccc2-c2nn[nH]n2)cc1` (stereo not shown) [Candesartan Cilexetil] it is 0%. On the same count and under the same terms, then `CCOc1nc2cccc(C(=O)O)c2n1Cc1ccc(-c2ccccc2-c2nnn[nH]2)cc1` [Candesartan], with 0%. On the same count and under the same terms, then `CSCCNc1nc(SCCC(F)(F)F)nc2c1ncn2[C@@H]1O[C@H](COP(=O)(O)OP(=O)(O)C(Cl)(Cl)P(=O)(O)O)[C@@H](O)[C@H]1O` [Cangrelor Tetrasodium], with 0%; and `CCCCCOC(=O)Nc1nc(=O)n([C@@H]2O[C@H](C)[C@@H](O)[C@H]2O)cc1F` [Capecitabine], with 6.29%.

As for `C[C@H](CS)C(=O)N1CCC[C@H]1C(=O)O` [Captopril], the inhibition at 100 µM came to 0%.

In the case of `C[N+](C)(C)CCOC(N)=O` [Carbachol], the inhibition at 100 µM was 3.56%. Turning to `COC(=O)N/N=C/c1c[n+]([O-])c2ccccc2[n+]1[O-]` [Carbadox], the inhibition at 100 µM was found to be 6.86%. Still for that read-out and setting: then `NC(=O)N1c2ccccc2C=Cc2ccccc21` [Carbamazepine], with 0%; and `CN1c2cc(O)c(N=NC(N)=O)cc2CC1S(=O)(=O)O` (stereo not shown) [Carbazochrome sodium sulfonate (AC-17)], with 15.7%; and `CN1CC(O)C2=C/C(=N/NC(N)=O)C(=O)C=C21` (stereo not shown) [Carbazochrome], with 10.9%. The same measure, in the same setting: the figure for `CC1(C)S[C@@H]2[C@H](NC(=O)C(C(=O)O)c3ccccc3)C(=O)N2[C@H]1C(=O)O` (stereo partly shown) [Carbenicillin disodium] is 2.9%. For the molecule `CC1(C)[C@@H](OC(=O)CCC(=O)O)CC[C@]2(C)[C@H]3C(=O)C=C4[C@@H]5C[C@@](C)(C(=O)O)CC[C@]5(C)CC[C@@]4(C)[C@]3(C)CC[C@@H]12` [Carbenoxolone Sodium], the inhibition at 100 µM came to 4.8%. Still for that read-out and setting: the figure for `C[C@@](Cc1ccc(O)c(O)c1)(NN)C(=O)O` [Carbidopa] is 24.2%.

Turning to `CCOC(=O)n1ccn(C)c1=S` [Carbimazole], the inhibition at 100 µM came to 0%.

Regarding `CN(C)CCOC(c1ccc(Cl)cc1)c1ccccn1` (stereo not shown) [CarbinoxaMine Maleate], the inhibition at 100 µM came out at 0%. In the case of `CCCCC[C@](C)(O)/C=C/[C@@H]1[C@@H](C/C=C\CCCC(=O)O)[C@@H](O)C[C@H]1O` [Carboprost], the inhibition at 100 µM stood at 17.6%.

In the case of `CC(C(=O)O)c1ccc2c(c1)[nH]c1ccc(Cl)cc12` (stereo not shown) [Carprofen], the inhibition at 100 µM stood at 0%.

On to `O=c1[nH]c(=O)c2ccccc2o1` [Carsalam], for which the inhibition at 100 µM worked out at 0%. As to `CC(C)(C)NCC(O)COc1cccc2c1CCC(=O)N2` (stereo not shown) [Carteolol HCl], the inhibition at 100 µM came to 3.36%. Same read-out and setting: the figure for `NS(=O)(=O)c1ccc(C(=O)O)cc1` [Carzenide] is 0%; for `CC[C@H](C)C[C@H](C)CCCCCCCCC(=O)N[C@H]1C[C@@H](O)[C@@H](NCCN)NC(=O)[C@@H]2[C@@H](O)CCN2C(=O)[C@H]([C@H](O)CCN)NC(=O)[C@H]([C@H](O)[C@@H](O)c2ccc(O)cc2)NC(=O)[C@@H]2C[C@@H](O)CN2C(=O)[C@H]([C@@H](C)O)NC1=O` [Caspofungin Acetate] it is 0%.

On to `COc1cc2c(Oc3ccc4[nH]c(C)cc4c3F)ncnc2cc1OCCCN1CCCC1` [Cediranib (AZD2171)], for which the inhibition at 100 µM is 51.1%.

Consider `N[C@@H](C(=O)N[C@@H]1C(=O)N2C(C(=O)O)=C(Cl)CS[C@H]12)c1ccccc1` [Cefaclor], for which the inhibition at 100 µM is 0%.

The values above are taken from publication doi:10.1101/2021.10.07.463234v2 (biorxiv, 2021).
